Data reported in PMC5558795 (Antiviral research, 2017).
pIC50: −log10 of the molar value. “Also recorded” adds a separate entry of the source.

Assays:
[1] = target: Furin (Homo sapiens, UniProt P09958); assay: Fluorescent peptide; assay type: biochemical; settings: read-out: In vitro IC50, Furin; 20 nM enzyme, 20 μM Pyr-RTKR-AMC
[2] = test system: Fetal human NPCs; assay type: cell-based
[3] = test system: ZIKV (Asian strain, FSS13025); assay: ZIKV infection of human fetal neural progenitor cells; assay type: cell-based, Zika virus; settings: compound up to 100 μM; for Inhibition of ZIKV infection of hfNPCs (in words): MOI 0.1, 4 days; for Cytotoxicity in hfNPCs (in words): Fig. 7A
[4] = parameters: species or system mice; settings: mouse, in vivo, ip, 10 mg/kg
[5] = target: ZIKV NS2B-NS3pro (Zika virus, UniProt A0A024B7W1); assay: Fluorescent peptide; assay type: biochemical; settings: read-out: IC50, ZIKV cleavage activity; Fig. 4A

Sequence of Furin (P09958 108-794): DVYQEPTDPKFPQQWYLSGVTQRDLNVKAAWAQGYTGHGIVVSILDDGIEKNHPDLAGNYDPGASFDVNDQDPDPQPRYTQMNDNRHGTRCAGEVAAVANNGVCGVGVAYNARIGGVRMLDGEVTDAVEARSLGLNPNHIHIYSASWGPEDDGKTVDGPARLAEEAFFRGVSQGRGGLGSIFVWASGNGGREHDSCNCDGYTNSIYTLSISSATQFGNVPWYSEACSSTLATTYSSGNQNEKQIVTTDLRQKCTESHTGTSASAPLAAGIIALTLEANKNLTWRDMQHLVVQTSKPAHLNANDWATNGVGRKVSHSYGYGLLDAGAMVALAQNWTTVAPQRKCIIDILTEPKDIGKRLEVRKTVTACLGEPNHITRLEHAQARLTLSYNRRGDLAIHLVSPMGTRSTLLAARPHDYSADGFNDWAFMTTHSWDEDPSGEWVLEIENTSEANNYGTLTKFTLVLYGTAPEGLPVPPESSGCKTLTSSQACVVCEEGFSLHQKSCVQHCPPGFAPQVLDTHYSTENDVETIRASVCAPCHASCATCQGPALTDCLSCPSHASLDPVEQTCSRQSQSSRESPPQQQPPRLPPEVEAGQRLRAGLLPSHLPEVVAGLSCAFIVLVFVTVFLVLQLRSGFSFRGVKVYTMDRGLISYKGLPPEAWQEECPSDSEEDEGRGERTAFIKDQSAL

Molecule	pIC50 [1]	Cytotoxicity (TC50) [2] [µM]	Inhibition of ZIKV infection of hfNPCs (in words) [3]	Cytotoxicity in hfNPCs (in words) [3]	Plasma half-life [4]	pIC50 [5]
Nc1cc(N)c(N=Nc2ccc(S(=O)(=O)Nc3nccs3)cc2)cc1N=Nc1ccc(S(=O)(=O)Nc2nccs2)cc1 [NSC86314]	< 4.00	212.5	little or no inhibition	more cytotoxic		
CC(=O)C(N=Nc1ccc(S(=O)(=O)Nc2ccccn2)cc1)C(=O)Nc1ccc(Cl)cc1 (stereo not drawn) [NSC134189]	< 4.00	132.3				
Clc1nc2n[nH]nc2nc1Cl [NSC157058]	< 4.00	257.4		without demonstrating significant cytotoxicity; also recorded: without significant cellular toxicity	~ 20 min	
Clc1ccc(-c2nn3c(COc4cc(Cl)c(OCc5nnc6sc(-c7ccc(Cl)cc7)nn56)cc4Cl)nnc3s2)cc1 [NSC716897]	< 4.00	178.4				
Clc1cc(OCc2nnc3sc(Cc4ccccc4)nn23)c(Cl)cc1OCc1nnc2sc(Cc3ccccc3)nn12 [NSC716898]	< 4.00	235.8				
Clc1ccc(-c2nn3c(COc4cccc(OCc5nnc6sc(-c7ccc(Cl)cc7)nn56)c4)nnc3s2)cc1 [NSC716903]	< 4.00	127.8	little or no inhibition	more cytotoxic		
Fc1cc(C2=Nn3c(COc4ccc(Cl)cc4Cl)nnc3S/C2=C\c2ccc(-c3ccc(Cl)cc3)o2)c(Cl)cc1Cl [NSC719147]	< 4.00	160.3				
aprotinin						~7.15
